Results as given in patent publication US20150232420A1, “TRANSGLUTAMINASE TG2 INHIBITORS, PHARMACEUTICAL COMPOSITIONS, AND METHODS OF USE THEREOF” (priority 2012, published 2015).
pIC50: −log10 of the molar value. Where two headings read alike, the source gives them in different places.

Key:
human TG2 = molecular target: T1, human TG2 (Homo sapiens, UniProt P21980); test: fluorescent screening assay for human TG2; assay type: biochemical
T1 sequence (P21980 1-687): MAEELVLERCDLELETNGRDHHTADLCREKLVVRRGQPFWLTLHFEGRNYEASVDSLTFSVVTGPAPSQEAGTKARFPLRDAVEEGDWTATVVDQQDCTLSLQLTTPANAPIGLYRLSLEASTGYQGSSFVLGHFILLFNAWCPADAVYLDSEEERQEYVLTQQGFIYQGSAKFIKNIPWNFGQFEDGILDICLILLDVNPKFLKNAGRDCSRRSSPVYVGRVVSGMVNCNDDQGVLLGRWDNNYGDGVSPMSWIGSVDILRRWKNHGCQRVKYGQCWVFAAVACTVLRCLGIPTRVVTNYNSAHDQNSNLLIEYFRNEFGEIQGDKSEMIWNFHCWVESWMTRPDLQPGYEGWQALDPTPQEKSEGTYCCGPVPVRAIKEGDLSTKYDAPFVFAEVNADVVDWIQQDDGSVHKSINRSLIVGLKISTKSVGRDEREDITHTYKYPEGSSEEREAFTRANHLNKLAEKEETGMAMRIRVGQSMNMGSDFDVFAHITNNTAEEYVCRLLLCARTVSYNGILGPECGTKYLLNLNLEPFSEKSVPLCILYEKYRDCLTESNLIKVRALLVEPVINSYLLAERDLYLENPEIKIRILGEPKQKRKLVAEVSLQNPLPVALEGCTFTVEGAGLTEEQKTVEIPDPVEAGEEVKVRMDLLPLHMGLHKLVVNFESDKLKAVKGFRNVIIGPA
Experimental: The fluorescent screening assay for human TG2 was performed as described herein: Assay conditions were 20 nM TG2, 8 μM N,N-dimethylated Casein (NMC) and 16 μM K×D (used for all transglutaminase assays) in 25 mM Hepes, pH 7.4, 250 mM NaCl, 2 mM MgCl2, 0.5 mM CaCl2, 0.2 mM DTT, 0.05% Pluronic F-127 at 37° C. A time point was taken with a microplate reader (Safire or Ultra, Tecan; ex: 350 nm, em: 535 nm) every 3 minutes for up to 2 hours and the initial linear reaction progress was used to determine the reaction velocity as a measure for enzyme activity. Assay conditions were identical for human TG6 and similar for human TG1 and mouse TG2 apart from enzyme concentration (mTG2 at 5 nM; TG1 at 10 nM) and CaCl2 concentration (0.2 mM for mTG2; 0.05 mM for TG1). Factor XIIIa was activated using 0.1 μg/μl thrombin (Sigma) in 35 mM Tris pH 8.0 for 20 min at 30° C. and the transamidation reaction was performed with 20 nM Factor XIIIa in 50 mM Tris pH 8.0, 1.25 mM CaCl2, 0.05% Pluronic, 0.2 mM DTT. TG3 was activated with 0.02 μg/μl thrombin under the same conditions as Factor XIIIa and assay conditions were 10 nM TG3 in 50 mM Hepes, pH 8, 20 mM CaCl2, 0.2 mM DTT, 0.05% Pluronic F-127.

kinetic solubility assay = assay type: physicochemical; conditions: for solubility in a kinetic solubility assay: in words; for Aq. Sol.: kinetic solubility
[1] = Liver microsomal stability (human); assay type: in vitro ADME; conditions: for metabolic stability in liver microsomal stability testing: human, in words; for microsomal CLint at 1 μM: pooled liver microsomes, pH 7.4, human liver microsomes, 0.25 mg protein/mL, NADPH, read-out: hLM Clint
Experimental: (§1) Incubations of test compound (1 μM initial concentration, n=2) were carried out with pooled hepatic liver microsomes (0.25 mg protein/mL in 0.1 M phosphate buffer pH7.4). NADPH (1 mM) was added to initiate the reactions. The incubations were performed at 37° C. Samples (100 μL) were taken from the incubation at 0, 5, 10, 20 and 40 min and added to 100 μL of acetonitrile containing carbamazepine as analytical internal standard, to terminate the reaction. Samples were centrifuged and the supernatant fractions analyzed using LC-MS/MS.
(§2) For all incubations, the instrument response (i.e. chromatographic peak area or peak height, normalized by internal standard), at each time-point were referenced to the zero time-point samples (as 100%) in order to determine the percentage of compound remaining at that time-point. Plots of the natural logarithm (Ln) of the percent of parent remaining for each compound, versus time, were used to determine the half-life in the incubation of interest.
(§3) Half-life values (t1/2) were calculated from the relationship: t1/2 (min)=−0.693/λ where λ was the slope of the Ln concentration versus time curve.
For incubations in hepatic liver microsomes, the in vitro intrinsic clearance, Clint (μL/min/mg microsomal protein), was calculated using the following formula:
Clint=(0.693/t1/2 microsomal)*(ml incubation/mg microsomal protein)*(mg microsomal protein/g liver)*(g liver/kg body weight)

Plasma stability (mouse) = assay type: in vitro ADME; conditions: pooled plasma
Experimental: (§4) Incubations of test compound (1 μM initial concentration, n=2) were carried out with pooled plasma or BSA (45 mg/mL in 0.1 M phosphate buffered saline pH 7.4). The incubations were performed at 37° C. Samples (50 μL) were obtained from the incubation at 0, 10, 30, 120, 240, 360 and 1440 min, and added to 150 μL of acetonitrile containing carbamazepine as analytical internal standard to terminate the reaction. Samples were centrifuged and the supernatant fractions analyzed using LC-MS/MS.
as §2, §3

Plasma stability (human) = assay type: in vitro ADME; conditions: pooled plasma
Experimental: as §4, §2, §3

[2] = Permeability in wild type MDCK monolayers; assay type: in vitro ADME; conditions: dog; wild type MDCK, apical to basolateral, 10 μM, pH 7.4; read-out: MDCK-WT Papp A-B
Experimental: (§5) The MDR1-MDCKII and wild type MDCKII cell lines were cultured in accordance with the guidelines provided by Solvo Biotechnology. Both wild-type MDCK and MDR1-MDCK cells were seeded at a cell density of 2.3×10^5 cells/well into 24-well Transwell plates and cultured for three days to form monolayers. Test compound was loaded into the donor compartments of the Transwell plate (24-well) bearing MDR1-MDCK or wild type MDCK monolayers. Test compound was added to either the apical or basolateral chambers of the Transwell plate assembly at a concentration of 10 μM in Hanks' Balanced Salt Solution containing 25 mM HEPES (pH 7.4). Lucifer Yellow was added to the apical buffer in all wells and its permeation monitored to assess integrity of the cell layer. As Lucifer Yellow (LY) cannot freely permeate lipophilic barriers, a high degree of LY transport indicates poor integrity of the cell layer and wells with LY permeability >100 nm/s are rejected.

[3] = test system: wild type MDCKII cell line; test: Permeability in wild type MDCK monolayers; assay type: in vitro ADME; conditions: MDCK study; in words
Experimental: as §5

P-glycoprotein (P-gp) = molecular target: T2, P-glycoprotein (P-gp) (Homo sapiens, UniProt P08183); test: Effective efflux ratio in MDCK-MDR1; assay type: in vitro ADME; conditions: for active efflux via P-gp: MDCK-MDR1 transfected cell line, in words; for MDCK-MDR1 EER: effective efflux ratio, 10 μM
T2 construct: host or cells: MDCKII (MDR1-MDCKII)
T2 sequence (P08183 whole entry): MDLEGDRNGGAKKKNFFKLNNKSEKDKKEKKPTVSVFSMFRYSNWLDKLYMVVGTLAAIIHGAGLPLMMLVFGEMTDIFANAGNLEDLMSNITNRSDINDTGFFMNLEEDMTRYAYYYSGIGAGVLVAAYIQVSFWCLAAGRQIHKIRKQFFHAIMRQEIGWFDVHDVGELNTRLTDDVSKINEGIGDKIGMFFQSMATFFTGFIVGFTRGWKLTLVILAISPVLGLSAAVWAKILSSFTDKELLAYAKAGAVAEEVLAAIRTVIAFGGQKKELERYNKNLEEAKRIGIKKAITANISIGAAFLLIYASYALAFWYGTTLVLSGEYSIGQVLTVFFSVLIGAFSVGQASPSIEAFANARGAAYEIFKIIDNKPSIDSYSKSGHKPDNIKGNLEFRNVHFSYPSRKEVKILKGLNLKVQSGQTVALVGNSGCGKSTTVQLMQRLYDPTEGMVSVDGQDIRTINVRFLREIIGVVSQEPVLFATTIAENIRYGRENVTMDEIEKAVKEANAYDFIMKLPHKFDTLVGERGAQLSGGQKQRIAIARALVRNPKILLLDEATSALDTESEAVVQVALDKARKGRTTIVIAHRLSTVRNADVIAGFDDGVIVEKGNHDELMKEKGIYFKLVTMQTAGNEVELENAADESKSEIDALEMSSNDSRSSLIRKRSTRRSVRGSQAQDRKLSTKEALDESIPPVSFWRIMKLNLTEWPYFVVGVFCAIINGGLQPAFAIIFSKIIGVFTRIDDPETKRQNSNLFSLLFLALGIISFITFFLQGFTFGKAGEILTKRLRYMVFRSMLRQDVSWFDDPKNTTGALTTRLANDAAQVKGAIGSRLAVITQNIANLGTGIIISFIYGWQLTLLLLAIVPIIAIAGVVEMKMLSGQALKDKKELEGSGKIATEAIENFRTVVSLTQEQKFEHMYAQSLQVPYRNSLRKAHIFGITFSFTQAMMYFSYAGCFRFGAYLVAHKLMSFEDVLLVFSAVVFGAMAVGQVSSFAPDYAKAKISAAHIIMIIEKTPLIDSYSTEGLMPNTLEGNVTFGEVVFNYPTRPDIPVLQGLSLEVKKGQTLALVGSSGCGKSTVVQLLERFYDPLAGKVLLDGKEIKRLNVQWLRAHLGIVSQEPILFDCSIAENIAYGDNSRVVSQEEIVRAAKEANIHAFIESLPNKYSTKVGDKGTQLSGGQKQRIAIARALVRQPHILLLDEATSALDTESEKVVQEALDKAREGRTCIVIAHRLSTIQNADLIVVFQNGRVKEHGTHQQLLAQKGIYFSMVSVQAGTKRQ
Experimental: as §5
P-glycoprotein (P-gp) is one of the main efflux transporters in brain; the potential for compound 1 and compound 2 to be effluxed by P-gp was assessed in an MDCK-MDR1 transfected cell line.

[4] = Liver microsomal stability (mouse); assay type: in vitro ADME
Experimental: as §1, §2, §3
For incubations in hepatic liver microsomes, the in vitro intrinsic clearance, Clint (μL/min/mg microsomal protein), was calculated using the following formula: […]

[5] = Table 7, 20 nM TG2, 37° C., read-out: IC50
[6] = mouse plasma, 1 μM, 37° C., read-out: Mouse Plasma T1/2
[7] = read-out: half-life in mouse plasma
[8] = human plasma, 1 μM, 37° C., read-out: Human Plasma T1/2
[9] = read-out: half-life in human plasma

Compound	pIC50 (human TG2; [5])	pIC50 (human TG2; Table 8, read-out: TG2 IC50)	solubility in a kinetic solubility assay (kinetic solubility assay)	Aq. Sol. (kinetic solubility assay) [mg/mL]	metabolic stability in liver microsomal stability testing [1]	microsomal CLint at 1 μM [1] [µL/min/mg]	half-life at 1 μM (Plasma stability (mouse); [6]) [h]	half-life at 1 μM (Plasma stability (mouse); [7]) [h]	half-life at 1 μM (Plasma stability (human); [8]) [h]	half-life at 1 μM (Plasma stability (human); [9]) [h]	Papp A→B at 10 μM [2] [×10⁻⁶ cm/s]	permeability [3]	active efflux via P-gp (P-glycoprotein (P-gp))	MDCK-MDR1 EER (P-glycoprotein (P-gp))	metabolic stability in liver microsomal stability testing ([4]; mouse, in words)	microsomal CLint at 1 μM ([4]; pooled liver microsomes, pH 7.4, mouse liver microsomes, 1 μM, 0.25 mg protein/mL, NADPH, read-out: mLM Clint) [µL/min/mg]
C=CC(=O)NCCCC[C@H](NC(=O)OCc1ccccc1)C(=O)N1CCN(c2ccccc2Cl)CC1 [compound 1, benzyl N-[(2S)-1-[4-(2-chlorophenyl)piperazin-1-yl]-1-oxo-6-(prop-2-enamido)hexan-2-yl]carbamate]	> 7.00	7.85	good solubility	0.87	poor	> 1390	> 24	> 24	> 24	> 24	14.2	good permeability	high active efflux	118	–	–
C=CC(=O)NCCCC[C@H](NC(=O)Cc1ccccc1)C(=O)N1CCN(c2cccc(C)n2)CC1 [compound 2, N-[(5S)-6-[4-(6-methylpyridin-2-yl)piperazin-1-yl]-6-oxo-5-(2-phenylacetamido)hexyl]prop-2-enamide]	> 7.00	7.22	good solubility	0.06	poor	> 1390	> 8	> 24	> 8	> 24	30.3	good permeability	high active efflux	7.1	poor	> 1390
